# Earlier results as cited in patent US7414057B2, “Piperazine urea derivatives as melanocortin-4 receptor agonists” (Merck & Co., Inc., priority 2002, dated 2008).
# Settings: injected intramuscularly or subcutaneously to males with psychogenic erectile dysfunction
substance,measurement,value
Ac-Nle-c[Asp-His-DPhe-Arg-Trp-Lys]-NH2 [melanotan-II],response rate,75%
